Measurements taken from patent US5932556A, “Methods and compositions for regulation of CD28 expression” (priority 1995, dated 1999).

How the values were obtained:
[1] = system: IL-2 production in Jurkat E6-1 cells; experiment: IL-2 production in activated Jurkat cells; type: cell-based, human; conditions: activated IL-2 production in Jurkat T cells; relative to the activity of 5 μM RT03S (100%)
Description: The T-cell lymphoma cell lines, Jurkat E6-1 (CD28+/CD4+) cells (152-TIB) and HUT 78 (CD28-/CD4+) cells (TIB-161) (ATCC, Rockville, Md.) were maintained in RPMI-10 (RPMI-1640 medium containing […] HEPES buffer, pH 7.4, 10% fetal calf serum (FCS) (Hyclone, Logan, Utah), 1% L-glutamine and 1% penicillin/streptomycin).
(§1) Prior to the addition of human peripheral T-cells or T-cell lymphoma cell lines (0.2-0.3×10^6), duplicate 96-well microtitre plates were pre-coated with purified anti-CD3 monoclonal antibody (mAb) (6.25-200 ng/well) (clone HIT 3a, Pharmingen, San Diego, Calif.) and washed twice with cold phosphate-buffered saline, pH 7.4 (PBS). Anti-CD3 mAb-treated T-cells were further activated by the addition of 2 ng phorbol 12-myristate 13-acetate (PMA) (Calbiochem, La Jolla, Calif.) and incubated for 48 h at 37° C. Anti-CD3/PMA-activated T-cells were treated with 1-20 μM CD28-specific and control oligonucleotides immediately following activation and re-treated 24 h later. T-cells from one duplicate plate was used for immunofluorescence analysis and the supernatants used for cytokine studies and the second plate was used for T-cell proliferation analysis.
Cell-derived human cytokine concentrations were determined in cell supernatants from the first duplicate microplate. Mitogen-induced changes in interleukin-2 (IL-2) levels were determined using a commercially available ELISA kit (R & D systems Quantikine kit, Minneapolis, Minn.) or by bioassay using the IL-2-dependent cell line, CTLL-2 (ATCC, Rockville, Md.). Mitogen-induced changes in interferon-gamma and interleukin-8 (IL-8) levels were determined by ELISA using kits from Endogen (Cambridge, Mass.) and R & D systems (Quantikine kit, Minneapolis, Minn.) respectively. All ELISA results were expressed as pg/ml and the CTLL-2 bioassay as counts per minute representing the IL-2 -dependent cellular incorporation of ^3 H-thymidine (ICN, Costa Mesa, Calif.) by CTLL-2 cells.
(§2) Peripheral blood mononuclear cells (PBMCs) were isolated from healthy donors by density gradient centrifugation followed by T cell enrichment using Lymphokwik (One Lambda). Contaminating monocytes were removed by adherence to plastic. Purified T cells were >99% CD2^+, <1% HLA-DR^+ and <5% CD25^+. Jurkat E6-1 (CD28^+ /CD4^+) T cells and HUT 78 (CD28^- /CD4^+) T cells and the monocytic cell line, THP were obtained from ATCC. Cells were cultured at a concentration of 0.2-0.3×10^6 /well and activated with plate-immobilized anti-CD3 monoclonal antibody (mAb) (HIT3A 0.25 μg/ml) (Pharmingen) and 2 ng phorbol 12-myristate 13-acetate (PMA) (Calbiochem).
Proliferative responses were assessed by measuring ^3 H-thymidine (1 μCi, ICN) incorporation for the last 16 h of each assay. Cells were harvested onto filters and DNA synthesis was measured following scintillation counting on a Wallac Betaplate counter. Cytokine concentrations in culture supernatants were assayed using ELISA kits for IL-2, IL-8 (R & D Systems) and IFN-γ (Endogen) or by bioassay using the IL-2 -dependent cell line, CTLL-2 (ATCC).

[2] = system: CD28 expression in anti-CD3/PMA-activated human T-cells; experiment: Activation-induced CD28 surface expression, immunofluorescence analysis; type: cell-based; conditions: for Relative inhibition of expression, CD28: anti-CD3/PMA-activated peripheral human T cells, relative to the activity of 5 μM RT03S (100%); for loss of inhibitory activity relative to RT03S: G to C substitutions within both four G regions
Description: as §1
Following activation, […] cell supernatant from the first duplicate microplate was transferred to another microplate for analysis of cell-derived cytokine production. The remaining cells were washed twice with isotonic saline solution, pH 7.4 (Becton Dickinson, Mansfield, Mass.) and resuspended in […] isotonic saline solution and split into two samples. One sample aliquot was co-stained with either PE-CD28/FITC-CD4 or PE-CD54/FITC-CD25 mAb and non-specific fluorescence was assessed by staining the second aliquot with PE/FITC-labeled isotype-matched control monoclonal antibody. All fluorescence-labeled monoclonal antibodies were obtained from Becton Dickinson (San Jose, Calif.). Incubations were performed in the dark at 4° C. for 45 min using saturating mAb concentrations. Unincorporated label was removed by washing in PBS prior to the analysis with a FACScan flow cytometer (Becton Dickinson). Antigen density was indirectly determined in gated live cells and expressed as the mean channel of fluorescence (MCF). Surface expression of specific antigens (CD54, CD25) was represented as the mean channel shift (MCS) obtained by subtracting the MCF of FITC- or PE-labeled isotype-matched (IgG1) control mAb-stained cells from the MCF of FITC- or PE-labeled antigen-specific mAb stained cells. Alternatively, surface expression of the CD4^+ -subset of cells stained with CD28 mAb was determined by subtracting the MCF of […]. The viability of control untreated and oligonucleotide-treated cells were determined in each batch of all oligonucleotides in multiple donors by staining with the vital dye, propidium iodide (5 μg/ml final concentration). The percentage of live cells which excluded propidium iodide was determined by flow cytometry and was >90% (range 90-99%) following treatment with all batches of all oligonucleotides at a dose range of 1-20 μM (FIG. 2).
as §2
Cells were co-stained with either PE-CD28/FITC-CD4 or PE-CD54/FITC-CD25 mAb or with PE/FITC-labeled isotype-matched controls (Becton Dickinson). Cell surface antigen density (CD28, CD54, CD25) was confirmed by flow cytometry (FACScan, Becton Dickinson). Viability was assessed by propidium iodide (5 μg/ml) exclusion in control untreated and oligo-treated CD4^+ cells from multiple donors and was typically >90% (range 90-99%) following 48 h incubation with 1-10 μM of each batch of all oligonucleotides.

[3] = target: CD3 (T-cell receptor/CD3 complex) on human T cells (human)
[4] = target: CD3 (T-cell receptor/CD3 complex) on human T cells (human); remark: listed apart in the source

RT19S: G GGG TTG GGG, SEQ ID NO: 58 (DNA GGGGTTGGGG; chemistry not given here)
Relative inhibition of expression, IL-2 [1]: 89% | Relative inhibition of expression, CD28 [2]: 30% | reduction of relative bioactivity ([2]; insertion or deletion of bases separating the sets of G's, range over the named group): 52-70%

RT10S: TTG GAG GCG GTG GTG GCG, SEQ ID NO: 53 (DNA TTGGAGGCGGTGGTGGCG; chemistry not given here)
Relative inhibition of expression, IL-2 [1]: 38% | loss of inhibitory activity relative to RT03S ([2]; range over the named group): 56-69% | Relative inhibition of expression, CD28 [2]: 31%

anti-CD3 monoclonal antibody (clone HIT 3a, Pharmingen)
incorporation of 3H-thymidine (T-cell proliferation) (counts per minute) [3]: 302000 | surface expression of CD28 (immunofluorescence, MCS) [4]: 150 MCS

RT06S: TTC CAG CCC CTC CTC CCC, SEQ ID NO: 64 (DNA TTCCAGCCCCTCCTCCCC; chemistry not given here)
Relative inhibition of expression, IL-2 [1]: 22% | Relative inhibition of expression, CD28 [2]: 29%

RT11S: GGG GAG GAG GGG CTG GAA, SEQ ID NO: 50, sense sequence, upstream region of the CD28 gene (sense GGGGAGGAGGGGCTGGAA; chemistry not given here)
Relative inhibition of expression, IL-2 [1]: 100% | Relative inhibition of expression, CD28 [2]: 100%

RT23S: TTG GAGCCG GTG GTG G, SEQ ID NO: 56 (DNA TTGGAGCCGGTGGTGG; chemistry not given here)
Relative inhibition of expression, IL-2 [1]: 57% | loss of inhibitory activity relative to RT03S ([2]; range over the named group): 56-69% | Relative inhibition of expression, CD28 [2]: 38%

RT09S: TTG GAG GGG GAG GTG GGG, SEQ ID NO: 52 (DNA TTGGAGGGGGAGGTGGGG; chemistry not given here)
Relative inhibition of expression, IL-2 [1]: 100% | Relative inhibition of expression, CD28 [2]: 126%

RT05S: TTG GAG GGG GAG GAG GGG, SEQ ID NO: 51 (DNA TTGGAGGGGGAGGAGGGG; chemistry not given here)
Relative inhibition of expression, IL-2 [1]: 100% | Relative inhibition of expression, CD28 [2]: 136%

RT18S: GGG GTG GTG GGG, SEQ ID NO: 57, core 12 mer sequence (DNA GGGGTGGTGGGG; chemistry not given here)
Relative inhibition of expression, IL-2 [1]: 120% | Relative inhibition of expression, CD28 [2]: 103%

RT25S: TTG GAG GGG CTC CTC GGG, SEQ ID NO: 55 (DNA TTGGAGGGGCTCCTCGGG; chemistry not given here)
Relative inhibition of expression, IL-2 [1]: 25% | loss of inhibitory activity relative to RT03S ([2]; range over the named group): 56-69% | Relative inhibition of expression, CD28 [2]: 44%

RT24S: TTG GAG CCG GTG GTG GCC, SEQ ID NO: 54 (DNA TTGGAGCCGGTGGTGGCC; chemistry not given here)
Relative inhibition of expression, IL-2 [1]: 57% | loss of inhibitory activity relative to RT03S ([2]; range over the named group): 56-69% | Relative inhibition of expression, CD28 [2]: 40%
